Measured values as given in ChEMBL document CHEMBL1143107 (Bioorg Med Chem, 2008).

Target: T1, Prostaglandin G/H synthase 2 (Homo sapiens, UniProt P35354)
T1 sequence (P35354 whole entry): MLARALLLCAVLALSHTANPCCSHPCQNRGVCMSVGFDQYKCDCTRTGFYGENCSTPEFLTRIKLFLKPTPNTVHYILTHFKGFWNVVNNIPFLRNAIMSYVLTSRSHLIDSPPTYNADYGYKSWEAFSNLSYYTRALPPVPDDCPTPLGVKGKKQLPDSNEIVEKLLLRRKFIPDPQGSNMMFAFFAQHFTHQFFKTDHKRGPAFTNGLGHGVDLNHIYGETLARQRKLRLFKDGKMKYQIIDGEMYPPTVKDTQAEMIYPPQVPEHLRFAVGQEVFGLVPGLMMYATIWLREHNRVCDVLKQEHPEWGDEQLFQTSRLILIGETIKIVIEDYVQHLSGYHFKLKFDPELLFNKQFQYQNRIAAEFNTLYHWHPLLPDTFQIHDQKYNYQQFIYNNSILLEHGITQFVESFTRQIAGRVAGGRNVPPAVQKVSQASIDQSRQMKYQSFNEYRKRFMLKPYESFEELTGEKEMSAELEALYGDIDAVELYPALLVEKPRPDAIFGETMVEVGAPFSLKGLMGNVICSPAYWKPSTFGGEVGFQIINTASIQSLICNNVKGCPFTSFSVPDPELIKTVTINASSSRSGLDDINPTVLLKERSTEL

SMILES | IC50
NS(=O)(=O)c1ccc(-c2nc(NCc3ccsc3)cc(C(F)(F)F)n2)cc1 | 72 nM
CS(=O)(=O)c1ccc(-c2nc(NCc3ccco3)cc(C(F)(F)F)n2)cc1 | 201 nM
CS(=O)(=O)c1ccc(-c2nc(NC3CCCC3)cc(C(F)(F)F)n2)cc1 | 192 nM
NS(=O)(=O)c1ccc(-c2nc(NCc3ccco3)cc(C(F)(F)F)n2)cc1 | 14.4 nM
CS(=O)(=O)c1ccc(-c2nc(NC3CCCCC3)cc(C(F)(F)F)n2)cc1 | 253 nM
CS(=O)(=O)c1ccc(-c2nc(NCc3cc4ccccc4s3)cc(C(F)(F)F)n2)cc1 | 5.92 nM

Target: T1, Prostaglandin G/H synthase 2
Remark: another data set of the same source
Description: Inhibition of human COX2 in human whole blood

SMILES | IC50
CCN(Cc1ccccc1)c1cc(C(F)(F)F)nc(-c2ccc(S(C)(=O)=O)cc2)n1 | > 10000 nM
CS(=O)(=O)c1ccc(-c2nc(C(F)(F)F)cc(S(=O)(=O)Cc3ccccc3)n2)cc1 | > 10000 nM
NS(=O)(=O)c1ccc(-c2nc(NCc3ccsc3)cc(C(F)(F)F)n2)cc1 | 51.9 nM
CS(=O)(=O)c1ccc(-c2nc(NCc3ccco3)cc(C(F)(F)F)n2)cc1 | 140 nM
CC(Nc1cc(C(F)(F)F)nc(-c2ccc(S(C)(=O)=O)cc2)n1)c1ccccc1 (stereo not drawn) | 522 nM
Cc1c(NCc2ccccc2)nc(-c2ccc(S(C)(=O)=O)cc2)nc1C(F)(F)F | 18 nM
CC(C)c1ccc(Nc2cc(C(F)(F)F)nc(-c3ccc(S(C)(=O)=O)cc3)n2)cc1 | > 10000 nM
CS(=O)(=O)Oc1ccc(CNc2cc(C(F)(F)F)nc(-c3ccc(S(C)(=O)=O)cc3)n2)cc1 | > 10000 nM
Cc1ccc(CNc2nc(-c3ccc(S(C)(=O)=O)cc3)nc(Cl)c2C)cc1 | 36.7 nM
CS(=O)(=O)c1ccc(-c2nc(NC3CCCC3)cc(C(F)(F)F)n2)cc1 | 476 nM
CC(C)Nc1cc(NCc2cccs2)nc(-c2ccc(S(C)(=O)=O)cc2)n1 | 10.3 nM
COc1cc(NCc2ccccc2)nc(-c2ccc(S(C)(=O)=O)cc2)n1 | 5.1 nM
CS(=O)(=O)c1ccc(-c2nc(SCc3ccccc3)cc(C(F)(F)F)n2)cc1 | 528 nM
CS(=O)(=O)c1ccc(-c2nc(Nc3ccccc3)cc(C(F)(F)F)n2)cc1 | > 10000 nM
CS(=O)(=O)c1ccc(-c2nc([S+]([O-])Cc3ccccc3)cc(C(F)(F)F)n2)cc1 (stereo not drawn) | > 10000 nM
NS(=O)(=O)c1ccc(-c2nc(NCc3ccco3)cc(C(F)(F)F)n2)cc1 | 2790 nM
COCOc1ccc(CNc2cc(C(F)(F)F)nc(-c3ccc(S(C)(=O)=O)cc3)n2)cc1 | > 10000 nM
Cc1c(NCc2ccc(F)cc2)nc(-c2ccc(S(C)(=O)=O)cc2)nc1C(F)(F)F | 22.4 nM
CS(=O)(=O)c1ccc(-c2nc(NCc3ccc(F)cc3)cc(C(F)(F)F)n2)cc1 | 77.2 nM
Cc1ccc(CNc2cc(C(F)(F)F)nc(-c3ccc(S(C)(=O)=O)cc3)n2)cc1 | 48.4 nM

SMILES | IC50
CS(=O)(=O)c1ccc(-c2nc(NC3CCCCC3)cc(C(F)(F)F)n2)cc1 | 238 nM
CS(=O)(=O)c1ccc(-c2nc(NCc3cc(F)cc(F)c3)cc(C(F)(F)F)n2)cc1 | 300 nM
COc1ccc(CNc2cc(C(F)(F)F)nc(-c3ccc(S(C)(=O)=O)cc3)n2)cc1 | 272 nM
CS(=O)(=O)c1ccc(-c2nc(SCc3cccs3)cc(C(F)(F)F)n2)cc1 | 4.1 nM
Cc1ccc(CNc2cc(C(F)(F)F)nc(-c3ccc(S(C)(=O)=O)cc3)n2)s1 | 11.7 nM
Cc1ccc(CNc2cc(Cl)nc(-c3ccc(S(C)(=O)=O)cc3)n2)cc1 | 44.4 nM
CC(C)c1ccc(CNc2cc(C(F)(F)F)nc(-c3ccc(S(C)(=O)=O)cc3)n2)cc1 | > 10000 nM
Cc1ccsc1CNc1cc(C(F)(F)F)nc(-c2ccc(S(C)(=O)=O)cc2)n1 | 528 nM
CCc1c(NCc2cccs2)nc(-c2ccc(S(C)(=O)=O)cc2)nc1C(F)(F)F | 121 nM
CC(C)Nc1cc(NCc2ccccc2)nc(-c2ccc(S(C)(=O)=O)cc2)n1 | 274 nM
CCS(=O)(=O)c1cc(NCc2ccccc2)nc(-c2ccc(S(C)(=O)=O)cc2)n1 | 90.7 nM
CCSc1cc(NCc2cccs2)nc(-c2ccc(S(C)(=O)=O)cc2)n1 | 1.2 nM
CS(=O)(=O)c1ccc(-c2nc(NCc3ccc(OC(F)(F)F)cc3)cc(C(F)(F)F)n2)cc1 | > 10000 nM
CCSc1cc(NCc2ccccc2)nc(-c2ccc(S(C)(=O)=O)cc2)n1 | 24.1 nM
Cn1cccc1CCNc1cc(C(F)(F)F)nc(-c2ccc(S(C)(=O)=O)cc2)n1 | 3980 nM
CS(=O)(=O)c1ccc(-c2nccc(NCc3ccccc3)n2)cc1 | > 10000 nM
CS(=O)(=O)c1ccc(-c2nccc(NCc3cccs3)n2)cc1 | 9.2 nM
CCS(=O)(=O)c1cc(NCc2cccs2)nc(-c2ccc(S(C)(=O)=O)cc2)n1 | 144 nM
CS(=O)(=O)c1ccc(-c2nc(NCc3cc4ccccc4s3)cc(C(F)(F)F)n2)cc1 | 293 nM
Cc1c(NCc2cccs2)nc(-c2ccc(S(C)(=O)=O)cc2)nc1C(F)(F)F | 38.2 nM

Species on record: Homo sapiens
Experiment: Ratio of IC50 for human COX1 to IC50 for human COX2 in human whole blood
Format: tissue-based

SMILES | Ratio IC50
CCN(Cc1ccccc1)c1cc(C(F)(F)F)nc(-c2ccc(S(C)(=O)=O)cc2)n1 | > 1
CS(=O)(=O)c1ccc(-c2nc(C(F)(F)F)cc(S(=O)(=O)Cc3ccccc3)n2)cc1 | > 1
Cc1cccc(CNc2cc(C(F)(F)F)nc(-c3ccc(S(C)(=O)=O)cc3)n2)c1 | > 52
NS(=O)(=O)c1ccc(-c2nc(NCc3ccsc3)cc(C(F)(F)F)n2)cc1 | > 193
CS(=O)(=O)c1ccc(-c2nc(NCc3ccco3)cc(C(F)(F)F)n2)cc1 | > 497
CC(Nc1cc(C(F)(F)F)nc(-c2ccc(S(C)(=O)=O)cc2)n1)c1ccccc1 (stereo not drawn) | 74
Cc1c(NCc2ccccc2)nc(-c2ccc(S(C)(=O)=O)cc2)nc1C(F)(F)F | > 556
CC(C)c1ccc(Nc2cc(C(F)(F)F)nc(-c3ccc(S(C)(=O)=O)cc3)n2)cc1 | > 1
CS(=O)(=O)Oc1ccc(CNc2cc(C(F)(F)F)nc(-c3ccc(S(C)(=O)=O)cc3)n2)cc1 | > 1
Cc1ccc(CNc2nc(-c3ccc(S(C)(=O)=O)cc3)nc(Cl)c2C)cc1 | > 2730
CS(=O)(=O)c1ccc(-c2nc(NCc3ccc(C(F)(F)F)cc3)cc(C(F)(F)F)n2)cc1 | > 52
CS(=O)(=O)c1ccc(-c2nc(NC3CCCC3)cc(C(F)(F)F)n2)cc1 | 80
CC(C)Nc1cc(NCc2cccs2)nc(-c2ccc(S(C)(=O)=O)cc2)n1 | > 9720
CS(=O)(=O)c1ccc(-c2nc(O)cc(NCc3ccccc3)n2)cc1 | > 2030
COc1cc(NCc2ccccc2)nc(-c2ccc(S(C)(=O)=O)cc2)n1 | > 19600
CS(=O)(=O)c1ccc(-c2nc(SCc3ccccc3)cc(C(F)(F)F)n2)cc1 | > 189
CS(=O)(=O)c1ccc(-c2nc(Nc3ccccc3)cc(C(F)(F)F)n2)cc1 | > 1
CS(=O)(=O)c1ccc(-c2nc([S+]([O-])Cc3ccccc3)cc(C(F)(F)F)n2)cc1 (stereo not drawn) | > 1
NS(=O)(=O)c1ccc(-c2nc(NCc3ccco3)cc(C(F)(F)F)n2)cc1 | > 3

SMILES | Ratio IC50
CS(=O)(=O)c1ccc(-c2nc(NCC3CCCCC3)cc(C(F)(F)F)n2)cc1 | > 68
COCOc1ccc(CNc2cc(C(F)(F)F)nc(-c3ccc(S(C)(=O)=O)cc3)n2)cc1 | > 1
Cc1c(NCc2ccc(F)cc2)nc(-c2ccc(S(C)(=O)=O)cc2)nc1C(F)(F)F | > 447
CS(=O)(=O)c1ccc(-c2nc(NCc3ccc(F)cc3)cc(C(F)(F)F)n2)cc1 | 1300
Cc1ccc(CNc2cc(C(F)(F)F)nc(-c3ccc(S(C)(=O)=O)cc3)n2)cc1 | > 2060
CCc1c(NCc2ccc(F)cc2)nc(-c2ccc(S(C)(=O)=O)cc2)nc1C(F)(F)F | > 972
CS(=O)(=O)c1ccc(-c2nc(NCc3cc(F)cc(F)c3)cc(C(F)(F)F)n2)cc1 | > 333
CC[S+]([O-])c1cc(NCc2cccs2)nc(-c2ccc(S(C)(=O)=O)cc2)n1 (stereo not drawn) | > 266
CS(=O)(=O)c1ccc(-c2nc(O)cc(NCc3cccs3)n2)cc1 | > 1260
COc1ccc(CNc2cc(C(F)(F)F)nc(-c3ccc(S(C)(=O)=O)cc3)n2)cc1 | > 367
CS(=O)(=O)c1ccc(-c2nc(SCc3cccs3)cc(C(F)(F)F)n2)cc1 | > 24400
Cc1ccc(CNc2cc(C(F)(F)F)nc(-c3ccc(S(C)(=O)=O)cc3)n2)s1 | > 852
CS(=O)(=O)c1ccc(-c2nc(NCCc3cccs3)cc(C(F)(F)F)n2)cc1 | > 83
CS(=O)(=O)c1ccc(-c2nc(NCc3ccc(O)cc3)cc(C(F)(F)F)n2)cc1 | > 158
Cc1ccc(CNc2cc(Cl)nc(-c3ccc(S(C)(=O)=O)cc3)n2)cc1 | > 2250
CC(C)(C)c1cc(NCc2ccccc2)nc(-c2ccc(S(C)(=O)=O)cc2)n1 | 1060
CC(C)c1ccc(CNc2cc(C(F)(F)F)nc(-c3ccc(S(C)(=O)=O)cc3)n2)cc1 | > 1
Cc1ccccc1CNc1cc(C(F)(F)F)nc(-c2ccc(S(C)(=O)=O)cc2)n1 | > 17
CS(=O)(=O)c1ccc(-c2nc(Cl)cc(NCc3ccccc3)n2)cc1 | > 9120

SMILES | Ratio IC50
CS(=O)(=O)c1ccc(-c2nc(Cl)cc(NCc3cccs3)n2)cc1 | > 81300
Cc1ccsc1CNc1cc(C(F)(F)F)nc(-c2ccc(S(C)(=O)=O)cc2)n1 | 189
CCc1c(NCc2cccs2)nc(-c2ccc(S(C)(=O)=O)cc2)nc1C(F)(F)F | > 83
CS(=O)(=O)c1ccc(-c2nc(NCc3ccc(N)cc3)cc(C(F)(F)F)n2)cc1 | 473
CC(C)Nc1cc(NCc2ccccc2)nc(-c2ccc(S(C)(=O)=O)cc2)n1 | > 365
COc1cc(NCc2cccs2)nc(-c2ccc(S(C)(=O)=O)cc2)n1 | > 22000
CCS(=O)(=O)c1cc(NCc2ccccc2)nc(-c2ccc(S(C)(=O)=O)cc2)n1 | > 110
CCSc1cc(NCc2cccs2)nc(-c2ccc(S(C)(=O)=O)cc2)n1 | > 8400
CS(=O)(=O)c1ccc(-c2nc(NCc3ccc(OC(F)(F)F)cc3)cc(C(F)(F)F)n2)cc1 | > 1
CN(Cc1ccccc1)c1cc(C(F)(F)F)nc(-c2ccc(S(C)(=O)=O)cc2)n1 | 22
CS(=O)(=O)c1ccc(-c2nc(Cl)cc(NCc3ccc(F)cc3)n2)cc1 | 2970
CCSc1cc(NCc2ccccc2)nc(-c2ccc(S(C)(=O)=O)cc2)n1 | 414
Cn1cccc1CCNc1cc(C(F)(F)F)nc(-c2ccc(S(C)(=O)=O)cc2)n1 | > 25
Cc1c(Cl)nc(-c2ccc(S(C)(=O)=O)cc2)nc1NCc1ccc(F)cc1 | > 145
CS(=O)(=O)c1ccc(-c2nccc(NCc3ccccc3)n2)cc1 | > 1
CS(=O)(=O)c1ccc(-c2nccc(NCc3cccs3)n2)cc1 | > 10900
CC(C)c1cc(NCc2ccccc2)nc(-c2ccc(S(C)(=O)=O)cc2)n1 | > 396
CCS(=O)(=O)c1cc(NCc2cccs2)nc(-c2ccc(S(C)(=O)=O)cc2)n1 | 15
Cc1c(NCc2cccs2)nc(-c2ccc(S(C)(=O)=O)cc2)nc1C(F)(F)F | > 78

Species on record: Homo sapiens
Experiment: Ratio of IC50 for human COX1 to IC50 for human COX2

SMILES | Ratio IC50
NS(=O)(=O)c1ccc(-c2nc(NCc3ccsc3)cc(C(F)(F)F)n2)cc1 | 1390
CS(=O)(=O)c1ccc(-c2nc(NCc3ccco3)cc(C(F)(F)F)n2)cc1 | > 498
CS(=O)(=O)c1ccc(-c2nc(NC3CCCC3)cc(C(F)(F)F)n2)cc1 | > 522
NS(=O)(=O)c1ccc(-c2nc(NCc3ccco3)cc(C(F)(F)F)n2)cc1 | > 6920
CS(=O)(=O)c1ccc(-c2nc(NCC3CCCCC3)cc(C(F)(F)F)n2)cc1 | > 3610
